Data set [1] concerns proMMP9-mediated migration of COS-1 cells. Briefly: two-dimensional dot migration assay, COS-1 cells stably expressing proMMP-9. The format is cell-based. As to the method: (§1) To test whether compound 3c is specific for inhibiting only proMMP9-mediated migration, a two-dimensional dot migration assay was performed using COS-1 cells engineered to stably express vector control pQCXIP, proMMP-2, proMMP-9, or proMMP-14 cDNA vectors. An immunoblot was performed to confirm protein expression and proper localization of each MMP (MMP-2/-9 are secreted while MMP-14 is membrane bound).

In data set [2] the test system is proMMP-9/MMP-2PEX chimera. Briefly: tryptophan fluorescence titration with chimera. In kind it is binding. As to the method:
A blue shift in proMMP-9 tryptophan fluorescence was monitored to determine the binding affinity of all compounds. Binding of a test compound to MMP-9 was assayed by observing the change of tryptophan emission upon binding. Purified recombinant MMP-9 (50 nmol/L) or MMP-9/MMP-2PEX (50 nmol/L) was diluted in buffer (50 mmol/L Tris-HCl, 60 mmol/L KCl, and 0.05% Tween 20, pH 7.4) in the presence or absence of the test compound. As a control for protein stability and loss, an analogous buffer solution was added to the protein. The protein sample was excited at 280 nm and emission scans were collected from 290 to 400 nm, using slit widths of 0.3 nm on a QM 4/200SE spectrofluorimeter with double excitation and emission monochromators. Three emission scans were collected and averaged at each concentration. The Kd was determined using the Prism software package (GraphPad V5) to fit the data to Equation (Δ). λmax=(λmax^∞×[2])/(Kd+[2]) (A) in which λmax is the wavelength at which maximal fluorescence of the protein was observed.
A chimera of proMMP-9 and MMP-2 in which the MMP-9 PEX domain was replaced by that of MMP-2, (proMMP-9/MMP-2PEX) was tested for analog binding.

The test system of data set [3] is proMMP-2-mediated migration of COS-1 cells. Nature of the data set: two-dimensional dot migration assay, COS-1 cells stably expressing proMMP-2. The format is cell-based. As to the method:
as §1

For data set [4], the system named is HT1080 cells. Briefly: cell adhesion to collagen or fibronectin coated plate. The format is cell-based, Human. The conditions noted are these: 37° C. 30 min. As to the method: A 96-well plate was coated with a thin layer of either collagen or fibronectin (5 μg/ml in PBS) substrate before use. HT1080 cells were then seeded onto wells and incubated at 37° C. for 30 min in the presence of various inhibitors. Wells were washed and cells were fixed in 4% paraformaldehyde and stained with DAPI. Images of each 96-well were microscopically captured and counted for the number of cells still adherent to the coated surface using automated computer software.

In data set [5] the target is T1, proMMP-9 (Homo sapiens, UniProt P14780).
T1 construct: Purified recombinant MMP-9 (50 nmol/L) or MMP-9/MMP-2PEX (50 nmol/L) was diluted in buffer
Nature of the data set: proMMP-9 tryptophan fluorescence blue shift binding assay.

Data set [6] has as its target T2, APMA-activated recombinant proMMP-9 (Homo sapiens, UniProt P14780).
T2 construct: made in house
Briefly: MMP-9 catalytic activity with fluorogenic peptide. In kind it is biochemical. Particulars: 10 μM fluorogenic peptide, monitored over 2 hours. As to the method:
Recombinant proMMP-9 protein was purified and incubated overnight in a 37° C. water bath in TNC buffer+1 mM APMA to artificially activate the protein.

The target in data set [7] is T3, MMP-9 dimer (Homo sapiens, UniProt P14780).
T3 construct: expressed in transfected cells; host or cells: HT1080 human fibrosarcoma cells
Nature of the data set: MMP-9 dimer formation, Myc/HA co-immunoprecipitation in HT1080 cells. The format is cell-based. Particulars: 50 μM overnight, compared to control compound 1f. The text has this:
Human fibroscarcoma HT1080 cells were co-transfected with MMP-9 cDNAs tagged with either a Myc or HA tag as previously reported. […] Using Myc antibody for immunoprecipitation and HA antibody for immunoblotting, the formation of dimeric MMP-9 was monitored.

Data set [8] relates to HT1080 fibrosarcoma cells. Briefly: chronic toxicity in HT1080 cells. In kind it is cell-based, Human. Particulars: 100 μM, HT1080 cells re-treated every three days for nine days. As to the method:
(§2) Compound 3c was evaluated for acute cytotoxicity. COS-1 cells stably expressing either vector control or proMMP-9 cDNA were treated with 50 μM 3c for 24 hours. As negative and positive controls, cells were treated with DMSO alone or 100 nM staurosporine (STS), an apoptosis inducer, respectively. […] A non-statistically significant 8% decrease in cell growth occurred after treatment with 50 μM of compound 3c. These experiments were repeated in endogenous MMP-9 expressing HT1080 fibrosarcoma cells, which were analyzed for chronic toxicity (cells were re-treated every three days for a total of nine days).

Data set [9] deals with FAK and PAX adhesion junctions in HT1080 cells. Briefly: focal adhesion complexes, immunofluorescence in HT1080 cells. In kind it is cell-based, Human. Particulars: 50 μM overnight.
The subject of data set [10] is proMMP-14-mediated migration of COS-1 cells. Briefly: two-dimensional dot migration assay, COS-1 cells stably expressing proMMP-14. In kind it is cell-based. As to the method:
as §1

Data set [11] addresses T4, MMP-9 interaction with α4/β1 integrin (Homo sapiens, UniProt P14780).
T4 construct: expressed in transfected cells; host or cells: HT1080 cells (MMP-9 transfected; integrin endogenous)
Briefly: co-immunoprecipitation of endogenous integrin with MMP-9 in HT1080 cells. Particulars: 50 μM. In kind it is cell-based. As to the method:
HT1080 cells transiently co-transfected with tagged MMP-9 cDNAs were prepared as described above.

The subject of data set [12] is proMMP9-mediated migration of COS-1 cells. Briefly: two-dimensional collagen dot migration assay, COS-1 cells overexpressing proMMP-9. The format is cell-based. Particulars: 50 μM.
Protocol: This assay was initially used to test the efficacy of analogs at a single concentration, 50 μM.
Cells were mixed with type I collagen solution with or without compound, dotted onto a 96-well plate, and allowed to migrate for 18 hours. They were then fixed, stained and scored for extent of migration.
Data set [13] concerns the target T1, proMMP-9. Nature of the data set: saturated transfer difference (STD) NMR, proMMP-9. In kind it is binding. Particulars: saturation of 1.12 ppm resonance. As to the method: As an additional test of binding selectivity, saturated transfer difference (STD) NMR was performed with purified recombinant proMMP-2 and proMMP-9 protein. ProMMP-2 and proMMP-9 are highly similar in structure and function, belonging to the same subfamily of MMPs known as the type IV collagenases and/or gelatinases. Thus proMMP-2 constitutes the best control for testing the selectivity of the PEX-9 inhibitor. Selective saturation of the 1.12 ppm resonance (proMMP-2 and proMMP-9) was used for STD NMR spectra. […] Thus, binding specificity is maintained upon increasing binding affinity.

Data set [14] deals with T5, MMP-9 association with CD44 and EGFR (Homo sapiens, UniProt P14780).
T5 construct: expressed in transfected cells; host or cells: HT1080 human fibrosarcoma cells (MMP-9 transfected; CD44 and EGFR endogenous)
Nature of the data set: co-immunoprecipitation of endogenous CD44 and EGFR with MMP-9 in HT1080 cells. The format is cell-based. The conditions noted are these: 50 μM overnight.

Data set [15] has as its system COS-1 cells stably expressing vector control or proMMP-9. Briefly: acute cytotoxicity in COS-1 cells. In kind it is cell-based. The conditions noted are these: 50 μM, 24 hours, non-statistically significant. As to the method: as §2
For data set [16], the system named is EGFR^Tyr1068, AKT^Ser473, Erk1/2^Thr202/Tyr204 phosphorylation. Briefly: phosphorylation of EGFR and downstream targets in HT1080 cells. The format is cell-based, Human. The conditions noted are these: 50 μM overnight.

Molecules are shown by their SMILES.

T1 sequence (P14780 20-707 limits assumed): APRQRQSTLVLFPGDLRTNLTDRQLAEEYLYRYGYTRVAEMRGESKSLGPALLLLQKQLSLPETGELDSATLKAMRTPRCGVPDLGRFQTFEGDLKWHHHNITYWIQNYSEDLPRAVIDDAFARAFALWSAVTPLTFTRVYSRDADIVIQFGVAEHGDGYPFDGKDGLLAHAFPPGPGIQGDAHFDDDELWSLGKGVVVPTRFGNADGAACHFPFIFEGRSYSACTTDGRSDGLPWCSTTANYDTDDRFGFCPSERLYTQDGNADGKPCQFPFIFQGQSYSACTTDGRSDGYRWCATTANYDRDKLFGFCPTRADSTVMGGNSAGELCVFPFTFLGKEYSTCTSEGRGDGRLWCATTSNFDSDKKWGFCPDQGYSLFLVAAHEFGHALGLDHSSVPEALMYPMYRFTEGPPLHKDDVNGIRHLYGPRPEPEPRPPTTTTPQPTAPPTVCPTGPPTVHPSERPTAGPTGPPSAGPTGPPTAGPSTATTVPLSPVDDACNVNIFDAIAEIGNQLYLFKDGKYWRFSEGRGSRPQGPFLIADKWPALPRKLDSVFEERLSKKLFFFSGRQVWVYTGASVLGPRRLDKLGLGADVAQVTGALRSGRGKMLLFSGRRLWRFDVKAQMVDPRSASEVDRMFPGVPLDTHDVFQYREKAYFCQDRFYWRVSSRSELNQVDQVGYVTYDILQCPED
T2 sequence (P14780 107-707 limits assumed): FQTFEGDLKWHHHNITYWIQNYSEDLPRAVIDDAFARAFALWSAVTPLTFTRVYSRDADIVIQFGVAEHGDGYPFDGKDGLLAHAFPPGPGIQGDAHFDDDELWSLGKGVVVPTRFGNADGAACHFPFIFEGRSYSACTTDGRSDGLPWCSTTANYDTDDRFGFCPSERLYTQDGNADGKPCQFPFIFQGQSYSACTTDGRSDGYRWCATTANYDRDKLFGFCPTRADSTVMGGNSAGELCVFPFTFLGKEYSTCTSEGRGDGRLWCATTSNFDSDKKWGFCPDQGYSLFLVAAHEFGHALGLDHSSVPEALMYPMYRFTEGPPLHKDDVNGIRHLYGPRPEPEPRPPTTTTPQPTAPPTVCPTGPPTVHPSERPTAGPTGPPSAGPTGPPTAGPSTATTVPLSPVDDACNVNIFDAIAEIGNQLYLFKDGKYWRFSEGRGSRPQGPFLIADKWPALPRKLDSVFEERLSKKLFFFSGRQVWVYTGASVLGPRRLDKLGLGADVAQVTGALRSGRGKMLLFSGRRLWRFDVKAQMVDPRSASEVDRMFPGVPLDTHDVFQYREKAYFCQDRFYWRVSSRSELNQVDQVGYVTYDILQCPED
T4 sequence (P14780 94-707): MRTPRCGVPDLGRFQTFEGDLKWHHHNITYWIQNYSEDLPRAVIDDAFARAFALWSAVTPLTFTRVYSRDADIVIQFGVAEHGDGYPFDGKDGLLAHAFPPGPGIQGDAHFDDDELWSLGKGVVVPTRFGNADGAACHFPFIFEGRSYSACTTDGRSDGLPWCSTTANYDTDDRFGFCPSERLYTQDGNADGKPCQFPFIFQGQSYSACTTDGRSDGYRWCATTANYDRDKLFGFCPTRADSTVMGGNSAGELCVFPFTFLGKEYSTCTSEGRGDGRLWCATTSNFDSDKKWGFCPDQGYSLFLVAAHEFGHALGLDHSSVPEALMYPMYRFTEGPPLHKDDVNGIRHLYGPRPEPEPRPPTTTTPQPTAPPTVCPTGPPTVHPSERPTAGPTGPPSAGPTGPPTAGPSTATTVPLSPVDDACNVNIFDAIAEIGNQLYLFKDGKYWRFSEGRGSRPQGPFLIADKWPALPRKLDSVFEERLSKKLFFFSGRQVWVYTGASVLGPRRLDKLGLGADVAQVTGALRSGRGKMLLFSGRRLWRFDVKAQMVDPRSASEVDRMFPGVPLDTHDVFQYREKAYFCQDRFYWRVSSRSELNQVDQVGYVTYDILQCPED
T3 sequence (P14780 94-707): as above
T5 sequence (P14780 94-707): as above

Consider `O=C(CCCSc1nc2c(c(=O)[nH]1)CCCC2)Nc1ccc(F)cc1` [Compound 3c, N-(4-Fluorophenyl)-4-(4-oxo-3,4,5,6,7,8-hexahydroquinazolin-2-ylthio)butanamide], for which, in data set [1], the “effectiveness at inhibiting migration compared with 1a” value is given as “significantly more effective at inhibiting migration” and the “inhibition of proMMP-9-mediated migration” value is given as “only inhibited proMMP9-mediated migration”. Further, in [2], the “shift in fluorescence upon titration with chimera” value is recorded as “no shift in fluorescence was observed”. Also, the “inhibition of proMMP-2-mediated migration” value in data set [3] is on record as “only inhibited proMMP9-mediated migration”. The cellular adhesion result in [4] is given as “inhibited cellular adhesion”. Also, the “binding to proMMP-9 relative to parent compound 1a” value in data set [5] (Kd compared with 1a) is reported as “four times tighter”. For the same molecule, in data set [5] (binding to proMMP-9, tryptophan fluorescence), the Kd (commonly a measure of binding affinity in units of concentration) was 320 nM. Besides, in data set [6], the “inhibition of MMP-9 catalytic activity” value is listed as “No inhibition of the catalytic activity was observed”. Also, the MMP-9 dimer formation entry in data set [7] is “significantly blocked MMP-9 dimer formation”. The “cell death, chronic toxicity” value in [8] is reported as “No cell death was observed”. The “formation of FAK and PAX adhesion junctions” value in data set [9] was “A decrease in the formation of FAK and PAX adhesion junctions”. Also, the “inhibition of proMMP-14-mediated migration” value in [10] was “only inhibited proMMP9-mediated migration”. The “endogenous α4β3 integrin co-immunoprecipitation” value in data set [11] is reported as “reduced endogenous α4β3 integrin co-immunoprecipitation”. The “effectiveness among the tested compounds in migration assay” value in data set [12] is reported as “most effective”. For the same molecule, the inhibition (in general, the percentage by which the read-out fell short of the control) at 50 µM in [12] (Chlorocebus aethiops, 18 hours) was found to be 90 ± 2%. Moreover, the “STD NMR peaks in presence of proMMP-9” value in data set [13] is listed as “STD peaks were observed”. The “endogenous CD44 and EGFR co-immunoprecipitation” value in [14] was “reduced endogenous CD44 and EGFR co-immunoprecipitation”. The “decrease in cell growth” value in data set [15] was 8%. In [16], the “phosphorylation of EGFR^Tyr1068 and downstream targets AKT^Ser473 and Erk1/2^Thr202/Tyr204” value is “reduced phosphorylation”.

Source of the values: patent US11040947B2, “Substituted quinazolines as matrix metalloproteinase-9 hemopexin domain inhibitors” (The Research Foundation for The State University of New York, priority 2017, dated 2021).
